Measured values: patent US4725683A, “Fluorophenoxyphenoxypropionates and derivatives thereof” (The Dow Chemical Company, priority 1985, dated 1988)

What was measured:
Type in all cases: in vivo
[1] = system: Wheat; assay: Postemergent activity; details: Triticum aestivum, post-emergence, 336 h, read-out: % Control
Method in brief: (§1)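 Pots of plants about 10 cm tall sprayed to run-off at 125, 62.5, 31.25, 15.6, 7.8 and 3.9 ppm. Spray: active in acetone mixed with an equal volume of water containing 0.1% TWEEN 200. Growth scored two weeks later on a 0–100 scale (0 no effect, 100 complete kill).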

[2] = system: Wild Oats; assay: Postemergent activity; details: Avena fatua, post-emergence, 336 h
Method in brief: as §1

[3] = system: Barley; assay: Postemergent activity
Description: (§2) Representative compositions of the present invention were evaluated for the postemergence control of species of plants listed in Table A. In these evaluations, pots of the plant species listed in Table A, grown to a height of about 10 cms, were used. […] The spray compositions were made by mixing the active ingredient in acetone to 1/2 the final volume, i.e., twice the final concentration. An equal amount of water was added to the active ingredient/acetone mixture wherein the water contained 0.1 percent by weight of TWEEN® 200 surfactant. The application to the plants was made to the point of run-off and was carried out with conventional spraying equipment. […] Thereafter, the pots were maintained under conditions conducive for plant growth.

[4] = system: Blackgrass; assay: Postemergent activity
Description: as §2

[5] = system: Cheatgrass; assay: Postemergent activity
Description: as §2

[6] = system: Green Foxtail; assay: Postemergent activity
Description: as §2

[7] = system: Yellow Foxtail; assay: Postemergent activity
Description: as §2

[8] = system: Barley; assay: Selective postemergence, track sprayer
Description: (§3) Representative compositions of the present invention were evaluated for the postemergence control of species of plants listed in Table A. In these evaluations, pots of the plant species listed in Table A, grown to a height of about 10 cms, were used. Aqueous spray compositions, containing various amounts of 2-[4-(2-fluoro-4-trifluoromethylphenoxy)-phenoxy]propionic acid methy ester, i.e., 125 ppm, 62.5 ppm, 31.25 ppm, 15.6 ppm, 7.8 ppm and 3.9 ppm, respectively, were applied to separate pots. The spray compositions were made by mixing the active ingredient in acetone to 1/2 the final volume, i.e., twice the final concentration. An equal amount of water was added to the active ingredient/acetone mixture wherein the water contained 0.1 percent by weight of TWEEN® 200 surfactant. The application to the plants was made to the point of run-off and was carried out with conventional spraying equipment. Other pots were sprayed with similar compositions containing no toxicant to serve as controls. Thereafter, the pots were maintained under conditions conducive for plant growth. Two weeks after treatment, the pots were examined for plant growth and evaluated on a scale of 0 to 100 where 0 represents no effect and 100 represents complete kill. The results of the examination of the treated pots are set forth below in Table A.
(§4) To further define the selective postemergence herbicidal characteristics of compounds of the present invention, chemicals were applied to additional species of grasses as listed in Table F. Chemicals evaluated were 2-[4-(4-bromo-2-fluorophenoxy)phenoxy]propionic acid methyl ester and its R isomer. Treatment conditions were similar to those described in Example A except that chemicals were delivered through a track sprayer set to deliver the appropriate dosages in 280.6 L/hectare of water containing 0.1% Tween-20 surfactant.

[9] = system: Green Foxtail; assay: Selective postemergence, track sprayer
Description: as §3, §4

[10] = system: Orchardgrass; assay: Selective postemergence, track sprayer
Description: as §3, §4

[11] = system: Tall Fescue; assay: Selective postemergence, track sprayer
Description: as §3, §4

COC(=O)[C@@H](C)Oc1ccc(Oc2ccc(Br)cc2F)cc1 [4-Bromo-(R-Enantiomer), R enantiomer of 2-[4-(4-bromo-2-fluorophenoxy)phenoxy]propionic acid methyl ester]
plant injury at 1.9 ppm ([1]; 1.9 ppm): 0%
plant injury at 3.9 ppm ([1]; 3.9 ppm): 0%
plant injury at 7.8 ppm ([1]; 7.8 ppm): 0%
plant injury at 15.6 ppm ([1]; 15.6 ppm): 0%
plant injury at 31.25 ppm ([1]; 31.25 ppm): 0%
plant injury at 62.5 ppm ([1]; 62.5 ppm): 0%
plant injury at 125 ppm ([1]; 125 ppm): 70%
plant injury at 250 ppm ([1]; 250 ppm): 100%
pest or weed control at 1.9 ppm ([2]; 1.9 ppm): 60%
pest or weed control at 3.9 ppm ([2]; 3.9 ppm): 80%
pest or weed control at 7.8 ppm ([2]; 7.8 ppm, read-out: % Control): 80%
pest or weed control at 15.6 ppm ([2]; 15.6 ppm, read-out: % Control): 90%
pest or weed control at 31.25 ppm ([2]; 31.25 ppm, read-out: % Control): 90%
pest or weed control at 62.5 ppm ([2]; 62.5 ppm, read-out: % Control): 100%
pest or weed control at 125 ppm ([2]; 125 ppm, read-out: % Control): 100%
pest or weed control at 250 ppm ([2]; 250 ppm, read-out: % Control): 100%
% Control ([3]; 1.9 ppm): 0%
% Control ([3]; 3.9 ppm): 0%
% Control ([3]; 7.8 ppm): 0%
% Control ([3]; 15.6 ppm): 0%
% Control ([3]; 31.25 ppm): 0%
% Control ([3]; 62.5 ppm): 95%
% Control ([3]; 125 ppm): 90%
% Control ([3]; 250 ppm): 100%
% Control ([4]; 0.1 ppm): 0%
% Control ([4]; 0.2 ppm): 0%
% Control ([4]; 0.4 ppm): 50%
% Control ([4]; 0.8 ppm): 60%
% Control ([4]; 1.5 ppm): 90%
% Control ([4]; 3.1 ppm): 90%
% Control ([4]; 6.3 ppm): 100%
% Control ([4]; 12.5 ppm): 100%
% Control ([5]; 0.1 ppm): 0%
% Control ([5]; 0.2 ppm): 0%
% Control ([5]; 0.4 ppm): 0%
% Control ([5]; 0.8 ppm): 0%
% Control ([5]; 1.5 ppm): 0%
% Control ([5]; 3.1 ppm): 0%
% Control ([5]; 6.3 ppm): 0%
% Control ([5]; 12.5 ppm): 0%
% Control ([6]; 0.1 ppm): 0%
% Control ([6]; 0.2 ppm): 50%
% Control ([6]; 0.4 ppm): 100%
% Control ([6]; 0.8 ppm): 100%
% Control ([6]; 1.5 ppm): 100%
% Control ([6]; 3.1 ppm): 100%
% Control ([6]; 6.3 ppm): 100%
% Control ([6]; 12.5 ppm): 100%
% Control ([7]; 0.1 ppm): 0%
% Control ([7]; 0.2 ppm): 0%
% Control ([7]; 0.4 ppm): 0%
% Control ([7]; 0.8 ppm): 20%
% Control ([7]; 1.5 ppm): 60%
% Control ([7]; 3.1 ppm): 100%
% Control ([7]; 6.3 ppm): 100%
% Control ([7]; 12.5 ppm): 100%
Percent Control ([8]; 0.00055 kgs/hectare): 0%
Percent Control ([8]; 0.0011 kgs/hectare): 0%
Percent Control ([8]; 0.0023 kgs/hectare): 0%
Percent Control ([8]; 0.0045 kgs/hectare): 0%
Percent Control ([8]; 0.009 kgs/hectare): 0%
Percent Control ([8]; 0.018 kgs/hectare): 0%
Percent Control ([8]; 0.035 kgs/hectare): 0%
Percent Control ([8]; 0.07 kgs/hectare): 0%
Percent Control ([8]; 0.14 kgs/hectare): 0%
Percent Control ([8]; 0.28 kgs/hectare): 0%
Percent Control ([9]; 0.00055 kgs/hectare): 30%
Percent Control ([9]; 0.0011 kgs/hectare): 70%
Percent Control ([9]; 0.0023 kgs/hectare): 90%
Percent Control ([9]; 0.0045 kgs/hectare): 95%
Percent Control ([9]; 0.009 kgs/hectare): 95%
Percent Control ([9]; 0.018 kgs/hectare): 100%
Percent Control ([9]; 0.035 kgs/hectare): 100%
Percent Control ([9]; 0.07 kgs/hectare): 100%
Percent Control ([9]; 0.14 kgs/hectare): 100%
Percent Control ([9]; 0.28 kgs/hectare): 100%
Percent Control ([10]; 0.00055 kgs/hectare): 0%
Percent Control ([10]; 0.0011 kgs/hectare): 0%
Percent Control ([10]; 0.0023 kgs/hectare): 0%
Percent Control ([10]; 0.0045 kgs/hectare): 0%
Percent Control ([10]; 0.009 kgs/hectare): 0%
Percent Control ([10]; 0.018 kgs/hectare): 0%
Percent Control ([10]; 0.035 kgs/hectare): 0%
Percent Control ([10]; 0.07 kgs/hectare): 0%
Percent Control ([10]; 0.14 kgs/hectare): 0%
Percent Control ([10]; 0.28 kgs/hectare): 50%
Percent Control ([11]; 0.00055 kgs/hectare): 0%
Percent Control ([11]; 0.0011 kgs/hectare): 0%
Percent Control ([11]; 0.0023 kgs/hectare): 0%
Percent Control ([11]; 0.0045 kgs/hectare): 20%
Percent Control ([11]; 0.009 kgs/hectare): 50%
Percent Control ([11]; 0.018 kgs/hectare): 70%
Percent Control ([11]; 0.035 kgs/hectare): 80%
Percent Control ([11]; 0.07 kgs/hectare): 90%
Percent Control ([11]; 0.14 kgs/hectare): 90%
Percent Control ([11]; 0.28 kgs/hectare): 90%
